Measurements taken from ChEMBL document CHEMBL1130031, “Binding affinities for sulfonamide inhibitors with human thrombin using Monte Carlo simulations with a linear response method” (J Med Chem, 1997).

The compounds below were run against Prothrombin (Homo sapiens, UniProt P00734) (assay: Inhibition constant against human thrombin).

Row | Compound | Ki [nM]
1 | CC1CNc2c(cccc2S(=O)(=O)N[C@@H](CCCNC(N)N)C(=O)N2CC[C@H](C)C[C@@H]2C(=O)O)C1 (stereo in doubt; 1c) | 280000
2 | CC1CCN(C(=O)[C@H](CCCNC(N)N)NS(=O)(=O)c2cccc3c2NCC(C)C3)CC1 (stereo partly specified) | 30
3 | CC1CNc2c(cccc2S(=O)(=O)N[C@@H](CCCNC(N)N)C(=O)N2CCCCC2)C1 (stereo partly specified) | 130

Now from value to compound:

Row | Ki [nM] | Compound
4 | 19 | CC1CNc2c(cccc2S(=O)(=O)N[C@@H](CCCNC(N)N)C(=O)N2CC[C@@H](C)C[C@@H]2C(=O)O)C1 (stereo partly specified)
5 | 240 | CC1CNc2c(cccc2S(=O)(=O)N[C@@H](CCCNC(N)N)C(=O)N2CC[C@H](C)C[C@@H]2C(=O)O)C1 (stereo in doubt; 1g)
6 | 1900 | CC1CNc2c(cccc2S(=O)(=O)N[C@@H](CCCNC(N)N)C(=O)N2CC[C@H](C)C[C@@H]2C(=O)O)C1 (stereo in doubt; 1b)
